Experimental data: patent US20210278408A1, “METHODS OF TREATMENT OF CANCER WITH SUBSTITUTED PYRROLE AND PYRAZOLE COMPOUNDS AND DIAGNOSIS OF CANCERS SUSCEPTIBLE TO TREATMENT WITH SUBSTITUTED PYRROLE AND PYRAZOLE COMPOUNDS” (Bantam Pharmaceutical, LLC, priority 2018, published 2021)
Where two headings read alike, the source gives them in different places.

Tested on: 407 cancer cell lines
Assay: Cell viability of cancer cell lines (IC50), CellTiter-Glo Viability Assay, 96 h
Type: cell-based
Conditions: Homo sapiens, read-out: Absolute IC50
Method: Viability was determined by using the 50% inhibitory concentration (IC50) as determined with the CellTiter-Glo® Viability Assay (Promega).
Experiments were initiated by first thawing and equilibrating the CellTiter-Glo® Buffer to room temperature. The lyophilized CellTiter-Glo® Substrate was also equilibrated to room temperature. The lyophilized substrate was reconstituted with the CellTiter-Glo® buffer to form the CellTiter-Glo® Reagent.
Cells were harvested during the logarithmic growth period, counted, and the cell concentration adjusted to 4.44×10^4 cells/mL using culture medium.
Cells were allowed to grow overnight and the following day, the TO reading was obtained by adding 10 μL culture medium to each well of Plate A. The plate was allowed to equilibrate at room temperature for thirty minutes, after which 50 μL CellTiter-Glo® reagent was added to each well. The contents were mixed for 5 min on an orbital shaker to induce cell lysis. Plates were incubated for 20 minutes to stabilize the luminescent signal and the TO luminescence recorded.
Test plate B was incubated for 96 h in the humidified incubator at 37° C. with 5% CO2.
Following the incubation, the plate was equilibrated at room temperature for thirty minutes. CellTiter-Glo® (50 μL) was added to each well of the plate and contents mixed for five minutes on an orbital shaker to induce cell lysis. The luminescent signal was allowed to stabilize at room temperature for 20 minutes and the luminescence recorded.
IC50 (EC50) was calculated using a dose-response curve, fitted using a nonlinear regression model with a sigmoidal dose response. Survival rate was calculated using the formula:
The Surviving rate (%)=(LumTest article−LumMedium control)/(LumNon-treated−LumMedium control)×100%.
Absolute IC50 (EC50) was calculated according to the dose-response curve generated by the statistical software (GraphPad Prism 5.0).

Cc1nn(-c2nc(-c3ccc(C(F)(F)F)cc3)c(SC(C)C)s2)c(C(=O)O)c1-c1cccc(F)c1 [Compound A197, 4-(3-fluorophenyl)-1-(5-(isopropylthio)-4-(4-(trifluoromethyl)phenyl)thiazol-2-yl)-3-methyl-1H-pyrazole-5-carboxylic acid]
IC50 (DMS-79, DMS 79): > 30000 nM
IC50 (DMS-114, 96 h, DMS 114 cells, 96 h): > 30000 nM
IC50 (DOHH-2, 96 h, DOHH-2 cells, 96 h): 310 nM
IC50 (DU-145, 96 h, DU 145, 96 h): 850 nM
IC50 (DU-4475, DU4475): 320 nM
IC50 (DV-90, 96 h, DV-90 cells, 96 h): > 30000 nM
IC50 (Daoy, 96 h, Daoy cells, 96 h): > 30000 nM
IC50 (Daudi, 96 h, Daudi cells, 96 h): 810 nM
IC50 (Detroit 562, 96 h, Detroit 562 cells, 96 h): > 30000 nM
IC50 (DoTc2-4510, 96 h, DoTc2 4510 cells, 96 h): > 30000 nM
IC50 (EBC-1, 96 h): > 30000 nM
IC50 (EJM, 96 h, EJM cells, 96 h): 3000 nM
IC50 (EOL1, EOL-1): 740 nM
IC50 (ES-2, 96 h, ES-2 cells, 96 h): > 30000 nM
IC50 (FTC-133, FTC-133): 840 nM
IC50 (FaDu, 96 h, FaDu, 96 h): 380 nM
IC50 (G292, 96 h, G-292 clone A141B1 cells, 96 h): 1860 nM
IC50 (GTL 16, 96 h, GTL-16 cells, 96 h): > 30000 nM
IC50 (Granta-519, GRANTA-519): 1000 nM
IC50 (HCC38, HCC38): > 30000 nM
IC50 (HCC78, 96 h, HCC-78 cells, 96 h): 410 nM
IC50 (HCC827, 96 h, HCC827 cells, 96 h): > 30000 nM
IC50 (HCC1187, 96 h, HCC1187 cells, 96 h): > 30000 nM
IC50 (HCC1428, HCC1428): > 30000 nM
IC50 (HCC1569, HCC1569): > 30000 nM
IC50 (HCC1806, 96 h, HCC1806 cells, 96 h): > 30000 nM
IC50 (HCC1937, HCC1937): > 30000 nM
IC50 (HCC1954, HCC1954): > 30000 nM
IC50 (HCC2218, 96 h): > 30000 nM
IC50 (HCC2935, HCC2935): > 30000 nM
IC50 (HCC4006, 96 h): 460 nM
IC50 (HCCLM3, 96 h, HCCLM3 cells, 96 h): > 30000 nM
IC50 (HCT-8, HCT-8): 770 nM
IC50 (HCT-15, HCT-15): 300 nM
IC50 (HCT-116, HCT-116): 920 nM
IC50 (HEC-1-A, 96 h, HEC-1-A cells, 96 h): > 30000 nM
IC50 (HEC-1B, 96 h, HEC-1-B cells, 96 h): 550 nM
IC50 (HEL 92.1.7, HEL 92.1.7): 380 nM
IC50 (HGC-27, 96 h, HGC-27 cells, 96 h): 510 nM
IC50 (HL-60, HL-60): 990 nM
IC50 (HLE, 96 h, HLE cells, 96 h): > 30000 nM
IC50 (HOS, 96 h, HOS cells, 96 h): > 30000 nM
IC50 (HPAC): 460 nM
IC50 (HT55, HT-55): > 30000 nM
IC50 (HT-3, 96 h, HT-3 cells, 96 h): > 30000 nM
IC50 (HT-29, HT-29): 1270 nM
IC50 (HT-1080, 96 h): 1040 nM
IC50 (HT-1376, HT-1376): > 30000 nM
IC50 (HeLa 229, 96 h, HeLa 229 cells, 96 h): > 30000 nM
IC50 (HeLa, 96 h, HeLa cells, 96 h): 1740 nM
IC50 (Hep3B): > 30000 nM
IC50 (HepG2, Hep G2): > 30000 nM
IC50 (HuCCT-1, 96 h, HuCCT1, 96 h): > 30000 nM
IC50 (HuH-1, HUH-1): > 30000 nM
IC50 (HuT78, HuT 78): 630 nM
IC50 (HuTu80, Hutu 80): 860 nM
IC50 (Huh-7, 96 h, HUH-7 cells, 96 h): 1050 nM
IC50 (IMR-32, 96 h, IMR-32 cells, 96 h): 800 nM
IC50 (Ishikawa, 96 h, Ishikawa, 96 h): 290 nM
IC50 (J82, 96 h, J82 cells, 96 h): 1110 nM
IC50 (JEG-3, 96 h, JEG-3 cells, 96 h): 1080 nM
IC50 (JIMT-1, 96 h, JIMT-1 cells, 96 h): > 30000 nM
IC50 (JJN-3, 96 h, JJN-3 cells, 96 h): 1340 nM
IC50 (JVM-2, JVM-2): 730 nM
IC50 (JVM-3, JVM-3): 270 nM
IC50 (JeKo-1, 96 h, JeKo-1 cells, 96 h): 790 nM
IC50 (Jurkat, Jurkat clone E6-1): 640 nM
IC50 (K562, K-562): 570 nM
IC50 (KARPAS-299, 96 h, KARPAS-299 cells, 96 h): > 30000 nM
IC50 (KARPAS-422, KARPAS-422): 780 nM
IC50 (KATO III, 96 h, KATO III, 96 h): > 30000 nM
IC50 (KG-1, KG-1): 1050 nM
IC50 (KHOS/NP, 96 h, KHOS/NP cells, 96 h): > 30000 nM
IC50 (KM-H2, 96 h, KMH-2 cells, 96 h): 1440 nM
IC50 (KMS-11, KMS-11): 630 nM
IC50 (KP-4, 96 h, KP4 cells, 96 h): 530 nM
IC50 (KYSE-70, KYSE-70): 460 nM
IC50 (KYSE-150, KYSE-150): 750 nM
IC50 (KYSE-270, KYSE-270): 4780 nM
IC50 (KYSE-410, 96 h, KYSE-410 cells, 96 h): > 301000 nM
IC50 (Kasumi 1, Kasumi-1): 1090 nM
IC50 (L-363, L-363): 880 nM
IC50 (LN-18, 96 h, LN-18 cells, 96 h): 520 nM
IC50 (LN-229, 96 h, LN-229 cells, 96 h): > 30000 nM
IC50 (LNCaP-Clone-FGC, 96 h, LNCaP clone FGC, 96 h): 180 nM
IC50 (LP-1, LP-1): 490 nM
IC50 (LS180, LS 180): > 30000 nM
IC50 (LS-123, 96 h, LS123 cells, 96 h): > 30000 nM
IC50 (LS-411N, LS411N): 700 nM
IC50 (LS-513, 96 h, LS513 cells, 96 h): 700 nM
IC50 (LS-1034, 96 h, LS1034 cells, 96 h): > 30000 nM
IC50 (LoVo): > 30000 nM
IC50 (MCF7, MCF7): > 30000 nM
IC50 (MDA-MB-231, MDA-MB-231): > 30000 nM
IC50 (MDA-MB-415, MDA-MB-415): > 30000 nM
IC50 (MDA-MB-436, 96 h): > 30000 nM
IC50 (MDA-MB-453, MDA-MB-453): > 30000 nM
IC50 (MDA-MB-468, 96 h, MDA-MB-468 cells, 96 h): 520 nM
IC50 (ME-180, 96 h, ME-180 cells, 96 h): 550 nM
IC50 (MEG-01, MEG-01): 1560 nM
IC50 (MES-SA, 96 h, MES-SA cells, 96 h): 490 nM
IC50 (MES-SA/Dx5, 96 h, MES-SA/DX5 cells, 96 h): 340 nM
IC50 (MFE-296, 96 h, MFE-296 cells, 96 h): > 30000 nM
IC50 (MHCC97H, MHCC97-H): 3250 nM
IC50 (MIA PaCa-2, MIA PaCa-2): 2890 nM
IC50 (MKN-1, 96 h, MKN1 cells, 96 h): 2930 nM
IC50 (MKN-45, 96 h, MKN45, 96 h): > 30000 nM
IC50 (MKN-74, 96 h, MKN74 cells, 96 h): > 30000 nM
IC50 (ML-2, ML-2): 460 nM
IC50 (MM1.S, MM.1S): > 30000 nM
IC50 (MOLM-13, 96 h, MOLM-13 cells, 96 h): 870 nM
IC50 (MOLP-8, 96 h, MOLP8 cells, 96 h): 990 nM
IC50 (MOLT-4, Molt-4): 620 nM
IC50 (MSTO-211H, 211 h, MsTo 211H): 550 nM
IC50 (MV4-11, 96 h, MV-4-11 cells, 96 h): 320 nM
IC50 (MX1, MX-1): > 30000 nM
IC50 (NALM-6, NALM-6): 700 nM
IC50 (NB-4, 96 h, NB4 cells, 96 h): 110 nM
IC50 (NCI-H23, 96 h, NCI-H23 cells, 96 h): 760 nM
IC50 (NCI-H69, 96 h, NCI-H69 cells, 96 h): > 30000 nM
IC50 (NCI-H82, 96 h): 760 nM
IC50 (NCI-H146, 96 h, NCI-H146 cells, 96 h): > 30000 nM
IC50 (NCI-H187, NCI-H187): 330 nM
IC50 (NCI-H209, 96 h, NCI-H209 cells, 96 h): > 30000 nM
IC50 (NCI-H226, NCI-H226): 2080 nM
